The source of these data is US12172975B2, “1H-indazole carboxamides as receptor-interacting protein kinase 1 inhibitors (RIPK1)” (BRISTOL-MYERS SQUIBB COMPANY, priority 2018, dated 2024).

Structures can show the parent of a compound that is named as a salt. Where two headings read alike, the source gives them in different places.

The subject of experiment [1] is MLKL phosphorylation in HT29-L23 human colorectal adenocarcinoma cells. Nature of the experiment: MLKL Phosphorylation High-Content Assay. The experiment is classed as cell-based. Particulars: 6 h, necroptosis induced with TNFα, SMAC mimetic and Z-VAD, read-out: pMLKL (IC50). The gist of the method:
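Following fixation and staining for phospho-S358 MLKL with Hoechst nuclear counterstain, high-content imaging quantified phosphorylation in HT29-L23 cells challenged 6 h with TNFα 35 ng/mL, SMAC mimetic 700 nM and Z-VAD 140 nM. Nec-1s at 6.25 μM defined full inhibition; 4-parameter logistic fits yielded IC50 and Ymax.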

Experiment [2] has as its target His-GST-TVMV-hRIPK1 (1-324) (Homo sapiens (Human), UniProt Q13546). Nature of the experiment: RIPK1 HTRF Binding Assay. Particulars: read-out: RIPK1 HTRF (IC50); FRET probe displacement, 1 h at rt. Background: Time-resolved FRET reads energy transfer from a long-lived donor to a nearby acceptor.

Sequence of His-GST-TVMV-hRIPK1 (1-324) (Q13546 1-324): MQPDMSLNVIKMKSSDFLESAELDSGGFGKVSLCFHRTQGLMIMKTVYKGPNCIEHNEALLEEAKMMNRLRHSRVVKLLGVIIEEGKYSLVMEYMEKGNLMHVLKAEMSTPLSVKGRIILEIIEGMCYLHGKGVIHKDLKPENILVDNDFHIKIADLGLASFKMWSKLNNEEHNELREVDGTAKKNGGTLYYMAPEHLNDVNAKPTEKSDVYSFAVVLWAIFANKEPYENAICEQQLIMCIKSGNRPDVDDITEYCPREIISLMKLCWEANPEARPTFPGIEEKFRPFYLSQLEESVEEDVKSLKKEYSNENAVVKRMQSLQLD

Usually IC50 stands for the concentration at which inhibition is half-maximal. For `[2H]C([2H])([2H])Oc1ncc(-c2ccc3c(C(=O)NC4CC4)n[nH]c3c2)cc1C(=O)N[C@@H](C)c1cc(C(F)(F)F)ccc1F` [Example 194, N-cyclopropyl-6-(5-{[(1S)-1-[2-fluoro-5-(trifluoromethyl)phenyl]-ethyl]carbamoyl}-6-(deutero)meth-oxypyridin-3-yl)-1H-indazole-3-carboxamide], the IC50 amounted to 52 nM in experiment [1] (Homo sapiens) and 67 nM in experiment [2].
On to `COc1ncc(-c2ccc3c(C(=O)NC4CC4)n[nH]c3c2)cc1C(=O)N[C@@H]1CN(C(=O)C2CCC(F)(F)C2)C[C@@H]1F` (stereo partly drawn) [Example 199, N-cyclopropyl-6-(5-{[(3R,4S)-1-(3,3-difluorocyclopentanecarbon-yl)-4-fluoropyrrolidin-3-yl]-carbamoyl}-6-(deutero)methoxy-pyridin-3-yl)-1H-indazole-3-carboxamide, TFA], for which the IC50 turned out to be 99 nM in experiment [1] and 340 nM in experiment [2].
Take `[2H]C([2H])([2H])Oc1ncc(-c2ccc3c(C(=O)NC4CC4)n[nH]c3c2)cc1C(=O)NCC(C)(C)C(=O)OC(C)(C)C` [Example 200, tert-butyl 3-({5-[3-(cyclopropyl-carbamoyl)-1H-indazol-6-yl]-2-(deutero)methoxypyridin-3-yl}-formamido)-2,2-dimethyl-propanoate]: the values for the IC50 in experiment [1] (Homo sapiens) and in experiment [2] were 79 nM and 130 nM, respectively.
With `[2H]C([2H])([2H])Oc1ncc(-c2ccc3c(C(=O)NC4CC4)n[nH]c3c2)cc1C(=O)N[C@H](C)c1cc(OC(F)(F)F)ccc1F` [Example 201, N-cyclopropyl-6-(5-{[(1R)-1-[2-fluoro-5-(trifluoromethoxy)-phenyl]ethyl]carbamoyl}-6-(deutero)methoxypyridin-3-yl)-1H-indazole-3-carboxamide], the IC50 in experiment [1] (Homo sapiens) turned out to be 110 nM; in experiment [2], 11 nM.
On the same counts, the results for `[2H]C([2H])([2H])Oc1ncc(-c2ccc3c(C(=O)NC4CC4)n[nH]c3c2)cc1C(=O)N[C@H](C)c1cccc(OC(F)(F)F)c1` [Example 202, N-cyclopropyl-6-[6-(deutero)-methoxy-5-{[(1R)-1-[3-(trifluoro-methoxy)phenyl]ethyl]carbam-oyl}pyridin-3-yl]-1H-indazole-3-carboxamide] are 53 nM and 36 nM.
In the case of `[2H]C([2H])([2H])Oc1ncc(-c2ccc3c(C(=O)NC4CC4)n[nH]c3c2)cc1C(=O)NC1CCCC(C(=O)N2CCC(F)(F)C2)C1` (stereo not drawn) [Example 203, N-cyclopropyl-6-(5-{[3-(3,3-difluoropyrrolidine-1-carbonyl)-cyclohexyl]carbamoyl}-6-(deutero)methoxypyridin-3-yl)-1H-indazole-3-carboxamide, TFA], the results for the half-inhibitory concentration (IC50) in experiment [1] (Homo sapiens) and in experiment [2] were 95 nM and 12 nM, respectively.
Turning to `[2H]C([2H])([2H])Oc1ncc(-c2ccc3c(C(=O)NC4CC4)n[nH]c3c2)cc1C(=O)NC1CCCC(C(=O)N2CCCC2)C1` (stereo not drawn) [Example 204], the values for the IC50 in experiment [1] (Homo sapiens) and in experiment [2] were 84 nM and 12 nM, respectively.
For `COc1ncc(-c2ccc3c(C(=O)NC4CC4)n[nH]c3c2)cc1C(=O)N[C@H](C)c1cccc(OC(F)(F)F)c1` [Example 205, N-cyclopropyl-6-[6-(deutero)-methoxy-5-{[(1R)-1-[3-(trifluoro-methoxy)phenyl](2,2,2-deutero)-ethyl]carbamoyl}pyridin-3-yl]-1H-indazole-3-carboxamide, TFA], the half-inhibitory concentration (IC50) in experiment [1] worked out at 60 nM; in experiment [2], 20 nM.
The like results for `COc1ncc(-c2ccc3c(C(=O)NC4CC4)n[nH]c3c2)cc1C(=O)N[C@@H](C)c1cc(OC(F)(F)F)ccc1F` [Example 206, N-cyclopropyl-6-(5-{[(1S)-1-[2-fluoro-5-(trifluoromethoxy)-phenyl](2,2,2-deutero)ethyl]-carbamoyl}-6-(deutero)methoxy-pyridin-3-yl)-1H-indazole-3-carboxamide] were, in that order, 3.8 nM and 220 nM.
